In patent US12448400B2, “KRAS G12D modulating compounds” (priority 2023, dated 2025):

How the values were obtained:
[1] = Rat oral pharmacokinetics; parameters: species or system Male Sprague Dawley rats; settings: male, Sprague Dawley, in vivo
Procedure: Rat Oral Pharmacokinetics
Test compounds were formulated in solution formulations (10 w/v % Sulfobutylether-p-cyclodextrin; 90% w/v % 50 mM Citrate Buffer) and administered orally to a group of three Male Sprague Dawley rats. The animals were fasted overnight prior to dose administration and up to four hours after dosing. The test articles were administrated by oral gavage at a dose volume of 5 mL-eq/kg.
Blood samples were collected at predose and 0.25, 0.5, 1, 2, 4, 6, 8, 12, 24, 48 and 72 hours post dose into K2EDTA tubes and stored on wet ice until processed. Whole blood was processed to plasma by centrifugation (3500 rpm for 10 minutes at 5° C.) within 30 minutes of collection. Plasma samples were placed in Micronic 96 well tubes and stored at −80° C. until transferred. Plasma concentration of the test compounds was determined by LC-MS/MS. Pharmacokinetic parameters were estimated using non-compartment model analysis. The maximum observed concentration (Cmax) and area under the curve from time of dosing to last measured concentration (AUClast) were calculated and reported.

GP2D (KRAS G12D) cells = test: 2D cell viability assay (CellTiter-Glo); format: cell-based; settings: 96 h; GP2D cells, 4 days, CellTiter-Glo luminescence; read-out: G12D 2D EC50
How it was run: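 GP2D (KRAS G12D) cells, 1000/well in RPMI + 10% FBS, were plated onto compound (1:3 DMSO series) and grown 4 days at 37 °C, 5% CO2 in 2D. CellTiter-Glo luminescence was read; EC50 is the concentration giving 50% signal decrease, from sigmoidal fit.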

[2] = Mouse oral cassette pharmacokinetics; format: in vivo, male CD-1 mice; settings: male, CD-1, mouse, in vivo, po, 30 mg/kg
How it was run: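 Male CD-1 mice (n=4) dosed orally by gavage at 30 mg-eq./kg per compound as cassettes of 1–3 compounds in 10 w/v % Captisol/50 mM citrate. Plasma sampled 0.5–24 h post dose, analysed by LC-MS/MS; Cmax and AUClast from non-compartmental analysis.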

GDP-loaded KRAS G12D = GDP-loaded KRAS G12D (Homo sapiens, UniProt P01116, G12D); test: KRAS G12D (GDP) biochemical assay, TR-FRET probe displacement; format: binding; settings: 0.5 nM enzyme, 30 min pre-incubation, 2 h incubation, TR-FRET ratio; read-out: G12D IC50
Chain of GDP-loaded KRAS G12D (P01116 1-188 isoform P01116-2 G12D): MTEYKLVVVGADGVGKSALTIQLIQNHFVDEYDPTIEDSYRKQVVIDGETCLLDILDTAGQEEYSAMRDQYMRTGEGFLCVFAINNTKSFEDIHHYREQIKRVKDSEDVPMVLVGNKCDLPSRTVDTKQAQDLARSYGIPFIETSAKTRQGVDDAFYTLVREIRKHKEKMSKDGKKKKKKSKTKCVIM
How it was run: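 Compound pre-incubated 30 min with GDP-loaded KRAS G12D in 50 mM Hepes pH 7.4, 150 mM NaCl, 5 mM MgCl2, 0.005% Tween-20, then Eu-streptavidin and TR-FRET probe added. After 2 h at room temperature, TR-FRET ratio read; IC50 is 50% ratio decrease, sigmoidal fit.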

| SMILES | Rat Parent % F ([1]; 7.5 mg/kg) [%] | Rat Parent AUC ([1]; 7.5 mg/kg) [nM·h] | EC50 (GP2D (KRAS G12D) cells) [nM] | further results |
| --- | --- | --- | --- | --- |
| C#Cc1c(F)ccc2cc(N)nc(-c3c(F)c4c5c(nc(OC[C@@]67CCCN6C[C@H](F)C7)nc5c3F)N3C[C@H]5CC[C@@H]([C@H]3CCC4)N5Cc3oc(=O)oc3C)c12 (atropisomer, axis not shown; (aR)) [Example 73, 4-(((1S,4R,11S,15aR)-11-(3-amino-8-ethynyl-7-fluoroisoquinolin-1-yl)-10,12-difluoro-8-(((2R,7aS)-2-fluorotetrahydro-1H-pyrrolizin-7a(5H)-yl)methoxy)-2,3,4,5,13,14,15,15a-octahydro-1H-1,4-epiminoazepino[1′,2′:1,8]azocino[2,3,4-de]quinazolin-16-yl)methyl)-5-methyl-1,3-dioxol-2-one] | 2 | 300 | 0.82 | – |
| CCc1c(F)ccc2cc(O)cc(-c3c(F)c4c5c(nc(OC[C@@]67CCCN6C[C@H](F)C7)nc5c3F)N3C[C@H]5CC[C@@H]([C@H]3CCC4)N5Cc3oc(=O)oc3C)c12 (atropisomer, axis not shown; (aR)) [Example 77, 4-(((1S,4R,11R,15aR)-11-(8-ethyl-7-fluoro-3-hydroxynaphthalen-1-yl)-10,12-difluoro-8-(((2R,7aS)-2-fluorotetrahydro-1H-pyrrolizin-7a(5H)-yl)methoxy)-2,3,4,5,13,14,15,15a-octahydro-1H-1,4-epiminoazepino[1′,2′:1,8]azocino[2,3,4-de]quinazolin-16-yl)methyl)-5-methyl-1,3-dioxol-2-one] | – | 430 | 0.26 | – |
| C#Cc1c(F)ccc2cc(N)nc(-c3c(F)c4c5c(nc(OC[C@@]67CCCN6C[C@H](F)C7)nc5c3F)N3C[C@H]5CC[C@@H]([C@H]3CCC4)N5Cc3oc(=O)oc3CC)c12 (atropisomer, axis not shown; (aR)) [Example 79, 4-(((1S,4R,11S,15aR)-11-(3-amino-8-ethynyl-7-fluoroisoquinolin-1-yl)-10,12-difluoro-8-(((2R,7aS)-2-fluorotetrahydro-1H-pyrrolizin-7a(5H)-yl)methoxy)-2,3,4,5,13,14,15,15a-octahydro-1H-1,4-epiminoazepino[1′,2′:1,8]azocino[2,3,4-de]quinazolin-16-yl)methyl)-5-ethyl-1,3-dioxol-2-one] | – | 220 | 1.2 | – |
| C#Cc1c(F)ccc2cccc(-c3nc4c5c(nc(OC[C@@]67CCCN6C[C@H](F)C7)nc5c3F)N3C[C@H]5CC[C@H](N5)[C@H]3CCC4)c12 [Comp. Ex. 76, (6aR,7S,10R)-2-(8-ethynyl-7-fluoronaphthalen-1-yl)-1-fluoro-13-(((2R,7aS)-2-fluorotetrahydro-1H-pyrrolizin-7a(5H)-yl)methoxy)-5,6,6a,7,8,9,10,11-octahydro-4H-3,11a,12,14,15-pentaaza-7,10-methanocyclohepta[4,5]cycloocta[1,2,3-de]naphthalene, reference compound] | – | – | – | Rat Parent % F ([1]; 5 mg/kg): 2%; Rat Parent AUC ([1]; 5 mg/kg): 59 nM·h; Mouse Parent AUC (nM * h) [2]: 1,400 nM * h |
| C#Cc1c(F)ccc2cccc(-c3nc4c5c(nc(OC[C@@]67CCCN6C[C@H](F)C7)nc5c3F)N3C[C@H]5CC[C@@H]([C@H]3CCC4)N5C(=O)OC(C)OC(=O)CCC)c12 (stereo partly drawn) [Example 25, 1-(butyryloxy)ethyl (6aR,7S,10R)-2-(8-ethynyl-7-fluoronaphthalen-1-yl)-1-fluoro-13-(((2R,7aS)-2-fluorotetrahydro-1H-pyrrolizin-7a(5H)-yl)methoxy)-5,6,6a,7,8,9,10,11-octahydro-4H-3,11a,12,14,15-pentaaza-7,10-methanocyclohepta[4,5]cycloocta[1,2,3-de]naphthalene-15-carboxylate] | – | – | – | Rat Parent % F ([1]; 5 mg/kg): 1%; Rat Parent AUC ([1]; 5 mg/kg): 37 nM·h |
| C#Cc1c(F)ccc2cc(N)cc(-c3nc4c5c(nc(OC[C@@]67CCCN6C[C@H](F)C7)nc5c3F)N3C[C@H]5CC[C@@H]([C@H]3CCC4)N5Cc3oc(=O)oc3CCC)c12 [Example 35, 4-(((6aR,7S,10R)-2-(3-amino-8-ethynyl-7-fluoronaphthalen-1-yl)-1-fluoro-13-(((2R,7aS)-2-fluorotetrahydro-1H-pyrrolizin-7a(5H)-yl)methoxy)-5,6,6a,7,8,9,10,11-octahydro-4H-3,11a,12,14,15-pentaaza-7,10-methanocyclohepta[4,5]cycloocta[1,2,3-de]naphthalen-15-yl)methyl)-5-propyl-1,3-dioxol-2-one] | – | – | 0.46 | Rat Parent % F ([1]; 15 mg/kg): 5%; Rat Parent AUC ([1]; 15 mg/kg): 270 nM·h |
| C#Cc1c(F)ccc2cc(N)cc(-c3nc4c5c(nc(OC[C@@]67CCCN6C[C@H](F)C7)nc5c3F)N3C[C@H]5CC[C@@H]([C@H]3CCC4)N5Cc3oc(=O)oc3CCCCCC)c12 [Example 36, 4-(((6aR,7S,10R)-2-(3-amino-8-ethynyl-7-fluoronaphthalen-1-yl)-1-fluoro-13-(((2R,7aS)-2-fluorotetrahydro-1H-pyrrolizin-7a(5H)-yl)methoxy)-5,6,6a,7,8,9,10,11-octahydro-4H-3,11a,12,14,15-pentaaza-7,10-methanocyclohepta[4,5]cycloocta[1,2,3-de]naphthalen-15-yl)methyl)-5-hexyl-1,3-dioxol-2-one] | 1.9 | 52 | 0.49 | – |
| C#Cc1c(F)ccc2cc(O)cc(-c3nc4c5c(nc(OC[C@@]67CCCN6C[C@H](F)C7)nc5c3F)N3C[C@H]5CC[C@@H]([C@@H]3[C@H]3CCC[C@@H]43)N5Cc3oc(=O)oc3C)c12 [Example 42, 4-(((3aS,3bS,4S,7R,14bR)-13-(8-ethynyl-7-fluoro-3-hydroxynaphthalen-1-yl)-12-fluoro-10-(((2R,7aS)-2-fluorotetrahydro-1H-pyrrolizin-7a(5H)-yl)methoxy)-2,3,3a,3b,4,5,6,7,8,14b-decahydro-1H-8a,9,11,14,15-pentaaza-4,7-methanocyclopenta[d]naphtho[1,8-ab]heptalen-15-yl)methyl)-5-methyl-1,3-dioxol-2-one] | 0.3 | 200 | 1.7 | – |
| C#Cc1c(F)ccc2cc(N)cc(-c3nc4c5c(nc(OC[C@@]67CCCN6C[C@H](F)C7)nc5c3F)N3C[C@H]5CC[C@H](N5)[C@H]3CCC4)c12 [Example 69-P, 5-ethynyl-6-fluoro-4-((6aR,7S,10R)-1-fluoro-13-(((2R,7aS)-2-fluorotetrahydro-1H-pyrrolizin-7a(5H)-yl)methoxy)-5,6,6a,7,8,9,10,11-octahydro-4H-3,11a,12,14,15-pentaaza-7,10-methanocyclohepta[4,5]cycloocta[1,2,3-de]naphthalen-2-yl)naphthalen-2-amine] | – | – | 0.5 | Mouse Parent AUC [2]: 500 nM·h; IC50 (GDP-loaded KRAS G12D): 0.07 nM |
| C#Cc1c(F)ccc2cc(N)cc(-c3nc4c5c(nc(OC[C@@]67CCCN6C[C@H](F)C7)nc5c3F)N3C[C@H]5CC[C@@H]([C@H]3CCC4)N5Cc3oc(=O)oc3C(C)C)c12 [Example 80, 4-(((6aR,7S,10R)-2-(3-amino-8-ethynyl-7-fluoronaphthalen-1-yl)-1-fluoro-13-(((2R,7aS)-2-fluorotetrahydro-1H-pyrrolizin-7a(5H)-yl)methoxy)-5,6,6a,7,8,9,10,11-octahydro-4H-3,11a,12,14,15-pentaaza-7,10-methanocyclohepta[4,5]cycloocta[1,2,3-de]naphthalen-15-yl)methyl)-5-isopropyl-1,3-dioxol-2-one] | 2.1 | 57 | 0.37 | – |
| C#Cc1c(F)ccc2cc(N)cc(-c3nc4c5c(nc(OC[C@@]67CCCN6C[C@H](F)C7)nc5c3F)N3C[C@H]5CC[C@@H]([C@H]3CCC4)N5Cc3oc(=O)oc3C(C)(C)C)c12 [Example 81, 4-(((6aR,7S,10R)-2-(3-amino-8-ethynyl-7-fluoronaphthalen-1-yl)-1-fluoro-13-(((2R,7aS)-2-fluorotetrahydro-1H-pyrrolizin-7a(5H)-yl)methoxy)-5,6,6a,7,8,9,10,11-octahydro-4H-3,11a,12,14,15-pentaaza-7,10-methanocyclohepta[4,5]cycloocta[1,2,3-de]naphthalen-15-yl)methyl)-5-(tert-butyl)-1,3-dioxol-2-one] | 0.4 | 11 | 0.63 | – |
